According to ChEMBL document CHEMBL5380795, “Design, Synthesis, and Bioactivity Investigation of Cyclic Lipopeptide Antibiotics Containing Eight to Nine Amino Acids” (J Med Chem, 2023):
Converted amounts (≈) assume the structure as drawn. Bridge positions count the residues as written; N and C are the ends. Square brackets hold non-standard residues; d marks the D form. Peptide text beside a SMILES is read from it. * marks the point of attachment. Decanoyl(3R-OH) = CCCCCCC[C@@H](O)CC(=O)*; dDab = NCC[C@@H](N)C(=O)O; Dab = NCC[C@H](N)C(=O)O

Legend:
[1] = Cytotoxicity against human HK-2 cells assessed as inhibition of cell growth incubated for 72 hrs by CCK-8 assay; format: toxicity, cell-based
Staphylococcus aureus [2] = assay: Antibacterial activity against methicillin resistant Staphylococcus aureus ATCC 33591 assessed as inhibition of bacterial growth incubated for 18 to 24 hrs by broth microdilution method; format: functional; details: time 18-24 hrs
Pseudomonas aeruginosa [3] = assay: Antibacterial activity against carbapenem resistant Pseudomonas aeruginosa clinical isolate 19-3 assessed as inhibition of bacterial growth incubated for 18 to 24 hrs by broth microdilution method; format: functional; details: time 18-24 hrs
Escherichia coli [4] = assay: Antibacterial activity against Escherichia coli NCTC 13353 assessed as inhibition of bacterial growth incubated for 18 to 24 hrs by broth microdilution method; format: functional; details: time 18-24 hrs
Pseudomonas aeruginosa [5] = assay: Antibacterial activity against carbapenem resistant Pseudomonas aeruginosa clinical isolate 17-1 assessed as inhibition of bacterial growth incubated for 18 to 24 hrs by broth microdilution method; format: functional; details: time 18-24 hrs
[6] = system: Staphylococcus epidermidis; assay: Antibacterial activity against methicillin resistant Staphylococcus epidermidis clinical isolate 19-6 assessed as inhibition of bacterial growth incubated for 18 to 24 hrs by broth microdilution method; format: functional; details: time 18-24 hrs
Escherichia coli [7] = assay: Antibacterial activity against Escherichia coli clinical isolate 19-2 assessed as inhibition of bacterial growth incubated for 18 to 24 hrs by broth microdilution method; format: functional; details: time 18-24 hrs
Acinetobacter baumannii [8] = assay: Antibacterial activity against carbapenem resistant Acinetobacter baumannii clinical isolate 19-8 assessed as inhibition of bacterial growth incubated for 18 to 24 hrs by broth microdilution method; format: functional; details: time 18-24 hrs
[9] = system: Staphylococcus epidermidis; assay: Antibacterial activity against methicillin resistant Staphylococcus epidermidis clinical isolate 19-5 assessed as inhibition of bacterial growth incubated for 18 to 24 hrs by broth microdilution method; format: functional; details: time 18-24 hrs
Escherichia coli [10] = assay: Antibacterial activity against KPC producing Escherichia coli ATCC BAA-2340 assessed as inhibition of bacterial growth incubated for 18 to 24 hrs by broth microdilution method; format: functional; details: time 18-24 hrs
Pseudomonas aeruginosa [11] = assay: Antibacterial activity against Pseudomonas aeruginosa ATCC 27853 assessed as inhibition of bacterial growth incubated for 18 to 24 hrs by broth microdilution method; format: functional; details: time 18-24 hrs
Staphylococcus aureus [12] = assay: Antibacterial activity against Staphylococcus aureus ATCC 29213 assessed as inhibition of bacterial growth incubated for 18 to 24 hrs by broth microdilution method; format: functional; details: time 18-24 hrs
Acinetobacter baumannii [13] = assay: Antibacterial activity against oxacillinase-27 producing Acinetobacter baumannii NCTC 13304 assessed as inhibition of bacterial growth incubated for 18 to 24 hrs by broth microdilution method; format: functional; details: time 18-24 hrs
Klebsiella pneumoniae [14] = assay: Antibacterial activity against KPC producing Klebsiella pneumoniae ATCC BAA-1705 assessed as inhibition of bacterial growth incubated for 18 to 24 hrs by broth microdilution method; format: functional; details: time 18-24 hrs
[15] = Selectivity index, ratio of IC50 for cytotoxicity against human HK-2 cells to MIC for antibacterial activity against Escherichia coli ATCC BAA-2523; format: toxicity, cell-based
Klebsiella pneumoniae [16] = assay: Antibacterial activity against carbapenem resistant Klebsiella pneumoniae clinical isolate 19-15 assessed as inhibition of bacterial growth incubated for 18 to 24 hrs by broth microdilution method; format: functional; details: time 18-24 hrs
Pseudomonas aeruginosa [17] = assay: Antibacterial activity against Pseudomonas aeruginosa clinical isolate 19-1 assessed as inhibition of bacterial growth incubated for 18 to 24 hrs by broth microdilution method; format: functional; details: time 18-24 hrs
Escherichia coli [18] = assay: Antibacterial activity against Escherichia coli ATCC BAA-2523 assessed as inhibition of bacterial growth incubated for 18 to 24 hrs by broth microdilution method; format: functional; details: time 18-24 hrs
Klebsiella pneumoniae [19] = assay: Antibacterial activity against carbapenem resistant Klebsiella pneumoniae clinical isolate 19-17 assessed as inhibition of bacterial growth incubated for 18 to 24 hrs by broth microdilution method; format: functional; details: time 18-24 hrs

Row | SMILES | IC50 at 72 h [1] [µg/mL] | MIC (Staphylococcus aureus [2]) [µg/mL] | MIC (Pseudomonas aeruginosa [3]) [µg/mL] | MIC (Escherichia coli [4]) [µg/mL] | MIC (Pseudomonas aeruginosa [5]) [µg/mL] | MIC [6] [µg/mL] | MIC (Escherichia coli [7]) [µg/mL] | MIC (Acinetobacter baumannii [8]) [µg/mL] | MIC [9] [µg/mL] | MIC (Escherichia coli [10]) [µg/mL] | MIC (Pseudomonas aeruginosa [11]) [µg/mL] | MIC (Staphylococcus aureus [12]) [µg/mL] | MIC (Acinetobacter baumannii [13]) [µg/mL] | MIC (Klebsiella pneumoniae [14]) [µg/mL] | selectivity ratio [15] | MIC (Klebsiella pneumoniae [16]) [µg/mL] | MIC (Pseudomonas aeruginosa [17]) [µg/mL] | MIC (Escherichia coli [18]) [µg/mL] | MIC (Klebsiella pneumoniae [19]) [µg/mL]
1 | CCCCCCCCCC(=O)N[C@H](CCN)C(=O)N[C@H]1CCNC(=O)[C@H]([C@@H](C)O)NC(=O)[C@H](CCN)NC(=O)[C@H](CCN)NC(=O)[C@H](CC(C)C)NC(=O)[C@H](CC(C)C)NC(=O)[C@H](CCN)NC1=O | 58.7 (≈ 59.8 µM) | > 64 | > 64 | > 64 | > 64 | 16 (≈ 16.3 µM) | > 64 | > 64 | 4 (≈ 4.07 µM) | 64 (≈ 65.2 µM) | > 64 | > 64 | > 64 | > 64 | < 0.9 | > 64 | > 64 | > 64 | > 64
2 | CCCCCCCCCC(=O)N[C@H](CCN)C(=O)N[C@H]1CCNC(=O)[C@H]([C@@H](C)O)NC(=O)[C@H](CCN)NC(=O)[C@H](CCN)NC(=O)[C@H](CCCCCCCC)NC(=O)[C@@H](CC(C)C)NC(=O)[C@H](CCN)NC1=O | 9.1 (≈ 8.76 µM) | 8 (≈ 7.7 µM) | 2 (≈ 1.93 µM) | 2 (≈ 1.93 µM) | 4 (≈ 3.85 µM) | 2 (≈ 1.93 µM) | 1 (≈ 0.963 µM) | 8 (≈ 7.7 µM) | 1 (≈ 0.963 µM) | 1 (≈ 0.963 µM) | 2 (≈ 1.93 µM) | 8 (≈ 7.7 µM) | 4 (≈ 3.85 µM) | 2 (≈ 1.93 µM) | 9.1 | 2 (≈ 1.93 µM) | 2 (≈ 1.93 µM) | 1 (≈ 0.963 µM) | 2 (≈ 1.93 µM)
3 | CCCCCCCCCC(=O)N[C@H](CCN)C(=O)N[C@H]1CCNC(=O)[C@H]([C@@H](C)O)NC(=O)[C@H](CCN)NC(=O)[C@H](CCN)NC(=O)[C@H](CC(C)C)NC(=O)[C@@H](Cc2ccccc2Cl)NC(=O)[C@H](CCN)NC1=O | 54.6 (≈ 52 µM) | > 64 | 2 (≈ 1.9 µM) | 8 (≈ 7.61 µM) | 64 (≈ 60.9 µM) | 2 (≈ 1.9 µM) | 2 (≈ 1.9 µM) | 64 (≈ 60.9 µM) | 4 (≈ 3.81 µM) | 2 (≈ 1.9 µM) | 32 (≈ 30.5 µM) | 64 (≈ 60.9 µM) | 32 (≈ 30.5 µM) | 2 (≈ 1.9 µM) | 27.3 | 4 (≈ 3.81 µM) | 2 (≈ 1.9 µM) | 2 (≈ 1.9 µM) | 4 (≈ 3.81 µM)
4 | CCCCCCCCCC(=O)N[C@H](CCN)C(=O)N[C@H]1CCNC(=O)[C@H](CO)NC(=O)[C@H](CCN)NC(=O)[C@H](CCN)NC(=O)[C@H](Cc2ccccc2)NC(=O)[C@@H](CC(C)C)NC(=O)[C@H](CCN)NC1=O | 146 (≈ 145 µM) | > 64 | 16 (≈ 16 µM) | 32 (≈ 31.9 µM) | 64 (≈ 63.9 µM) | 2 (≈ 2 µM) | 16 (≈ 16 µM) | > 64 | 4 (≈ 3.99 µM) | 16 (≈ 16 µM) | 64 (≈ 63.9 µM) | 64 (≈ 63.9 µM) | > 64 | 8 (≈ 7.98 µM) | 9.1 | 32 (≈ 31.9 µM) | 16 (≈ 16 µM) | 16 (≈ 16 µM) | 64 (≈ 63.9 µM)
5 | CCCCCCCCCC(=O)N[C@H](CCN)C(=O)N[C@H]1CCCNC(=O)[C@H]([C@@H](C)O)NC(=O)[C@H](CCN)NC(=O)[C@H](CCN)NC(=O)[C@H](CC(C)C)NC(=O)[C@@H](CC(C)C)NC(=O)[C@H](CCN)NC1=O | 158 (≈ 159 µM) | > 64 | 2 (≈ 2.01 µM) | 32 (≈ 32.1 µM) | 4 (≈ 4.01 µM) | 32 (≈ 32.1 µM) | 16 (≈ 16.1 µM) | > 64 | 4 (≈ 4.01 µM) | 16 (≈ 16.1 µM) | 4 (≈ 4.01 µM) | > 64 | > 64 | 16 (≈ 16.1 µM) | 9.9 | 16 (≈ 16.1 µM) | 4 (≈ 4.01 µM) | 16 (≈ 16.1 µM) | 64 (≈ 64.2 µM)
6 | CCCCCCC[C@H](O)CC(=O)N[C@H](CCN)C(=O)N[C@H]1CCNC(=O)[C@H](CC(C)C)NC(=O)[C@H](CCN)NC(=O)[C@H](CCN)NC(=O)[C@H](CC(C)C)NC(=O)[C@@H](CC(C)C)NC(=O)[C@H](CCN)NC1=O | 77.6 (≈ 76.8 µM) | > 64 | 4 (≈ 3.96 µM) | 8 (≈ 7.92 µM) | 2 (≈ 1.98 µM) | 16 (≈ 15.8 µM) | 8 (≈ 7.92 µM) | 2 (≈ 1.98 µM) | 2 (≈ 1.98 µM) | 2 (≈ 1.98 µM) | 1 (≈ 0.99 µM) | > 64 | 1 (≈ 0.99 µM) | 4 (≈ 3.96 µM) | 19.4 | 8 (≈ 7.92 µM) | 2 (≈ 1.98 µM) | 4 (≈ 3.96 µM) | 8 (≈ 7.92 µM)
7 | CCCCCCC[C@@H](O)CC(=O)N[C@H](CCN)C(=O)N[C@H]1CCNC(=O)[C@H]([C@@H](C)O)NC(=O)[C@H](CCN)NC(=O)[C@H](CCN)NC(=O)[C@H](CC(C)C)NC(=O)[C@@H](Cc2ccccc2)NC(=O)[C@H](CCN)NC1=O ({Decanoyl(3R-OH)}-[dDab][Dab][Dab][dF]L[Dab][Dab]T; lactam 2-C) | 125 (≈ 121 µM) | > 64 | 1 (≈ 0.969 µM) | 4 (≈ 3.87 µM) | 0.5 (≈ 0.484 µM) | 32 (≈ 31 µM) | 2 (≈ 1.94 µM) | 32 (≈ 31 µM) | 8 (≈ 7.75 µM) | 1 (≈ 0.969 µM) | 0.5 (≈ 0.484 µM) | > 64 | 32 (≈ 31 µM) | 0.5 (≈ 0.484 µM) | 125 | 2 (≈ 1.94 µM) | 0.5 (≈ 0.484 µM) | 1 (≈ 0.969 µM) | 4 (≈ 3.87 µM)
8 | CCCCCCCCC(=O)N[C@H](CCN)C(=O)N[C@H]1CCNC(=O)[C@H](CC(C)C)NC(=O)[C@H](CCN)NC(=O)[C@H](CCN)NC(=O)[C@H](CC(C)C)NC(=O)[C@@H](CC(C)C)NC(=O)[C@H](CCN)NC1=O | 77.4 (≈ 79 µM) | > 64 | 4 (≈ 4.08 µM) | 16 (≈ 16.3 µM) | 2 (≈ 2.04 µM) | 16 (≈ 16.3 µM) | 32 (≈ 32.6 µM) | 8 (≈ 8.16 µM) | 4 (≈ 4.08 µM) | 2 (≈ 2.04 µM) | 1 (≈ 1.02 µM) | > 64 | 8 (≈ 8.16 µM) | 2 (≈ 2.04 µM) | 4.8 | 16 (≈ 16.3 µM) | 4 (≈ 4.08 µM) | 16 (≈ 16.3 µM) | 16 (≈ 16.3 µM)
